Reference: ChEMBL document CHEMBL6114953, “De novo discovery of cyclic peptide inhibitors of IL-11 signaling” (Bioorg Med Chem, 2025)
pKi: −log10 of the molar value. Calls of active or inactive are those of the source. The rule behind the calls is not given here. Where a SMILES comes first, the peptide text is derived from it. Bridges are numbered along the chain shown (N, C = ends). [ ]: non-standard residue; d: D form. ξ: configuration not given here. Met(O) = CS(=O)CC[C@H](N)C(=O)O; ξH = NC(Cc1c[nH]cn1)C(=O)O; Nle = CCCC[C@H](N)C(=O)O

Tests used:
[1] = Binding affinity to CAP chip-immobilized IL-6 (unknown origin) by SPR analysis; conditions: Homo sapiens
[2] = biological target: T1, Interleukin-11 receptor subunit alpha (Homo sapiens) (UniProt Q14626); experiment: Binding affinity to CAP chip-immobilized biotinylated recombinant human IL-11Ralpha by SPR analysis
T1 sequence (whole entry): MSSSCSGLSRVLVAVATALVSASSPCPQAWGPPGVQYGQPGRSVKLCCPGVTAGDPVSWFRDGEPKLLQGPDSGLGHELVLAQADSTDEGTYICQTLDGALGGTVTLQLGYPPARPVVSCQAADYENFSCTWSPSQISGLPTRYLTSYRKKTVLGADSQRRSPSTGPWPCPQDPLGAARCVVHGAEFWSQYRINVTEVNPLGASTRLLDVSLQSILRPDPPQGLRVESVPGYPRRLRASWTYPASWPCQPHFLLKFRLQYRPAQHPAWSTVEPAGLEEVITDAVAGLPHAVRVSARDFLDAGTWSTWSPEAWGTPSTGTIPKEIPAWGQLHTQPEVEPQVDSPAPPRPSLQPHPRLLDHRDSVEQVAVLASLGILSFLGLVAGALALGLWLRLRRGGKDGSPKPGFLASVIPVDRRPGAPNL

[3] = biological target: T2, Interleukin-11 (Homo sapiens) (UniProt P20809); experiment: Binding affinity to CAP chip-immobilized IL-11 (unknown origin) by SPR analysis
T2 sequence (whole entry): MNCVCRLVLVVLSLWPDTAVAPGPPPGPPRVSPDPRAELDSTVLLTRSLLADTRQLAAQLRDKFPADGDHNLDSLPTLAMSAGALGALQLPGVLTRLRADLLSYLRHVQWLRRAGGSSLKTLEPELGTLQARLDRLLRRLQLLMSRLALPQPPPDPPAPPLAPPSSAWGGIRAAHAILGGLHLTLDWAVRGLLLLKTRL

[4] = Inhibition of his-tagged recombinant human IL-11 (22 to 199 residues) expressed in HEK293 cells/biotinylated recombinant human IL-11Ralpha (24 to 370 residues) expressed in HEK293 cells incubated for 1 hr by AlphaLISA assay; format: cell-based
[5] = species: Homo sapiens; experiment: Binding affinity to CAP chip-immobilized IL-6R (unknown origin) by SPR analysis

Row | Activity [1] | Activity [2] | Activity [3] | Activity [5] | Structure (SMILES) | pKi [4]
1 | inactive | inactive | inactive | inactive | C=C(CCCCC)[C@@H](O)[C@H](C)C(=O)N1C(=O)OC[C@@H]1C(C)C | < 4.55
2 | – | – | – | – | CCCC[C@@H]1NC(=O)[C@H](Cc2c[nH]cn2)NC(=O)[C@H](CO)NC(=O)[C@@H](NC(=O)[C@H](Cc2c[nH]c3ccccc23)NC(=O)[C@H](Cc2ccc(O)cc2)NC(C)=O)CSSC[C@@H](C(=O)N[C@@H](Cc2c[nH]c3ccccc23)C(=O)N[C@@H](CCCNC(=N)N)C(N)=O)NC(=O)[C@H](C(C)C)NC(=O)[C@H]([C@@H](C)O)NC(=O)[C@H]([C@@H](C)O)NC(=O)[C@H](Cc2ccc(O)cc2)NC(=O)[C@H](Cc2ccc(O)cc2)NC1=O (Ac-YWCSH[Nle]YYTTVCWR-NH2; disulfide 3-12) | 6.05
3 | – | – | – | – | CC[C@H](C)[C@@H]1NC(=O)[C@H](Cc2c[nH]cn2)NC(=O)[C@H](Cc2c[nH]cn2)NC(=O)[C@H](C)NC(=O)[C@@H](NC(=O)[C@H](Cc2ccccc2)NC(=O)[C@H](CCC(=O)O)NC(=O)[C@@H](NC(=O)[C@@H](NC(=O)[C@H](CCC(=O)O)NC(=O)[C@H](C)N)[C@@H](C)O)C(C)C)CSSC[C@@H](C(N)=O)NC(=O)[C@H](Cc2c[nH]c3ccccc23)NC(=O)[C@H](Cc2c[nH]c3ccccc23)NC(=O)[C@H](Cc2c[nH]c3ccccc23)NC(=O)[C@H](C)NC(=O)[C@H](Cc2ccc(O)cc2)NC1=O (H-AETVEFCAHHIYAWWWC-NH2; disulfide 7-17) | 5.62
4 | – | – | – | – | CC(C)C[C@@H]1NC(=O)CNC(=O)[C@H](Cc2ccccc2)NC(=O)[C@H](Cc2c[nH]c3ccccc23)NC(=O)[C@H](CCC(=O)O)NC(=O)[C@H](Cc2c[nH]c3ccccc23)NC(=O)[C@H]([C@@H](C)O)NC(=O)[C@@H]2CCCN2C(=O)[C@H](Cc2c[nH]cn2)NC(=O)[C@@H](NC(=O)[C@H](Cc2ccccc2)NC(=O)[C@H](CCC(=O)O)NC(=O)[C@@H](NC(=O)[C@@H](NC(=O)[C@H](CCC(=O)O)NC(=O)[C@H](C)N)[C@@H](C)O)C(C)C)CSSC[C@@H](C(N)=O)NC1=O (H-AETVEFCHPTWEWFGLC-NH2; disulfide 7-17) | 5.62
5 | – | – | – | – | CC(C)C[C@@H]1NC(=O)[C@H](Cc2c[nH]c3ccccc23)NC(=O)[C@@H](NC(=O)[C@H](Cc2ccccc2)NC(=O)[C@H](CCC(=O)O)NC(=O)[C@@H](NC(=O)[C@@H](NC(=O)[C@H](CCC(=O)O)NC(=O)[C@H](C)N)[C@@H](C)O)C(C)C)CSSC[C@@H](C(N)=O)NC(=O)[C@H](CCC(N)=O)NC(=O)[C@H](CCC(=O)O)NC(=O)[C@H](Cc2c[nH]c3ccccc23)NC(=O)[C@H](Cc2c[nH]c3ccccc23)NC(=O)[C@H](CCC(N)=O)NC(=O)[C@H](Cc2ccccc2)NC(=O)[C@@H]2CCCN2C1=O (H-AETVEFCWLPFQWWEQC-NH2; disulfide 7-17) | 6.46
6 | inactive | inactive | inactive | inactive | CC(C)C[C@@H]1NC(=O)[C@@H]2CCCN2C(=O)[C@H](CC(C)C)NC(=O)[C@H](Cc2c[nH]c3ccccc23)NC(=O)[C@@H](NC(=O)[C@H](Cc2ccccc2)NC(=O)[C@H](CCC(=O)O)NC(=O)[C@@H](NC(=O)[C@@H](NC(=O)[C@H](CCC(=O)O)NC(=O)[C@H](C)N)[C@@H](C)O)C(C)C)CSSC[C@@H](C(N)=O)NC(=O)[C@H](Cc2ccccc2)NC(=O)[C@H](Cc2ccc(O)cc2)NC(=O)[C@H](Cc2c[nH]c3ccccc23)NC(=O)[C@H](Cc2c[nH]cn2)NC(=O)[C@H](CO)NC1=O (H-AETVEFCWLPLSHWYFC-NH2; disulfide 7-17) | 5.87
7 | – | – | – | – | CC(C)C[C@@H]1NC(=O)[C@H](Cc2c[nH]c3ccccc23)NC(=O)[C@@H](NC(=O)[C@H](Cc2ccccc2)NC(=O)[C@H](CCC(=O)O)NC(=O)[C@@H](NC(=O)[C@@H](NC(=O)[C@H](CCC(=O)O)NC(=O)[C@H](C)N)[C@@H](C)O)C(C)C)CSSC[C@@H](C(N)=O)NC(=O)[C@H](CCC(=O)O)NC(=O)[C@H](Cc2ccc(O)cc2)NC(=O)[C@H](Cc2c[nH]c3ccccc23)NC(=O)[C@H](Cc2ccc(O)cc2)NC(=O)C(Cc2c[nH]cn2)NC(=O)[C@H](Cc2c[nH]c3ccccc23)NC(=O)[C@@H]2CCCN2C1=O (some centres undefined) (H-AETVEFCWLPW[ξH]YWYEC-NH2; disulfide 7-17) | 5.89
8 | inactive | inactive | inactive | inactive | CC(C)C[C@@H]1NC(=O)[C@@H]2CCCN2C(=O)[C@H](C(C)C)NC(=O)[C@H](Cc2c[nH]c3ccccc23)NC(=O)[C@@H](NC(=O)[C@H](Cc2ccccc2)NC(=O)[C@H](CCC(=O)O)NC(=O)[C@@H](NC(=O)[C@@H](NC(=O)[C@H](CCC(=O)O)NC(=O)[C@H](C)N)[C@@H](C)O)C(C)C)CSSC[C@@H](C(N)=O)NC(=O)[C@H](C(C)C)NC(=O)[C@H](CCC(N)=O)NC(=O)[C@H](Cc2ccccc2)NC(=O)[C@H](Cc2ccc(O)cc2)NC(=O)[C@H](CO)NC1=O (H-AETVEFCWVPLSYFQVC-NH2; disulfide 7-17) | 5.82
9 | – | – | – | – | CC(C)C[C@@H]1NC(=O)[C@H](CCC(=O)O)NC(=O)[C@H](Cc2ccccc2)NC(=O)[C@H](CCC(N)=O)NC(=O)[C@@H]2CCCN2C(=O)[C@H](Cc2c[nH]c3ccccc23)NC(=O)[C@H](C(C)C)NC(=O)[C@H](Cc2ccc(O)cc2)NC(=O)[C@@H](NC(=O)[C@H](Cc2ccccc2)NC(=O)[C@H](CCC(=O)O)NC(=O)[C@@H](NC(=O)[C@@H](NC(=O)[C@H](CCC(=O)O)NC(=O)[C@H](C)N)[C@@H](C)O)C(C)C)CSSC[C@@H](C(N)=O)NC(=O)[C@H](C(C)C)NC1=O (H-AETVEFCYVWPQFELVC-NH2; disulfide 7-17) | 6.51
10 | – | – | – | – | CSCC[C@@H]1NC(=O)[C@H](Cc2c[nH]cn2)NC(=O)[C@H](CO)NC(=O)[C@@H](NC(=O)[C@H](Cc2c[nH]c3ccccc23)NC(=O)[C@H](Cc2ccc(O)cc2)NC(=O)[C@H](Cc2ccccc2)NC(=O)[C@H](CCC(=O)O)NC(=O)[C@@H](NC(=O)[C@@H](NC(=O)[C@H](CCC(=O)O)NC(=O)[C@H](C)N)[C@@H](C)O)C(C)C)CSSC[C@@H](C(=O)N[C@@H](Cc2c[nH]c3ccccc23)C(=O)N[C@@H](CCCNC(=N)N)C(N)=O)NC(=O)[C@H](C(C)C)NC(=O)[C@H]([C@@H](C)O)NC(=O)[C@H]([C@@H](C)O)NC(=O)[C@H](Cc2ccc(O)cc2)NC(=O)[C@H](Cc2ccc(O)cc2)NC1=O (H-AETVEFYWCSHMYYTTVCWR-NH2; disulfide 9-18) | 5.41
11 | – | – | – | – | CSCC[C@@H]1NC(=O)[C@H](Cc2c[nH]cn2)NC(=O)[C@H](CO)NC(=O)[C@@H](NC(=O)[C@H](Cc2c[nH]c3ccccc23)NC(=O)[C@H](Cc2ccc(O)cc2)NC(=O)[C@H](Cc2ccccc2)NC(=O)[C@H](CCC(N)=O)NC(=O)[C@@H](NC(=O)[C@@H](NC(=O)[C@H](CCC(N)=O)NC(=O)[C@H](C)N)[C@@H](C)O)C(C)C)CSSC[C@@H](C(=O)N[C@@H](Cc2c[nH]c3ccccc23)C(=O)N[C@@H](CCCNC(=N)N)C(N)=O)NC(=O)[C@H](C(C)C)NC(=O)[C@H]([C@@H](C)O)NC(=O)[C@H]([C@@H](C)O)NC(=O)[C@H](Cc2ccc(O)cc2)NC(=O)[C@H](Cc2ccc(O)cc2)NC1=O (H-AQTVQFYWCSHMYYTTVCWR-NH2; disulfide 9-18) | 6.74
12 | – | – | – | – | CC(C)[C@H](NC(=O)[C@@H](NC(=O)[C@H](CCC(N)=O)NC(=O)[C@H](C)N)[C@@H](C)O)C(=O)N[C@@H](CCC(N)=O)C(=O)N[C@@H](Cc1ccccc1)C(=O)N[C@@H](Cc1ccc(O)cc1)C(=O)N[C@@H](Cc1c[nH]c2ccccc12)C(=O)N[C@H]1CSSC[C@@H](C(=O)N[C@@H](Cc2c[nH]c3ccccc23)C(=O)N[C@@H](CCCNC(=N)N)C(N)=O)NC(=O)[C@H](C(C)C)NC(=O)[C@H]([C@@H](C)O)NC(=O)[C@H]([C@@H](C)O)NC(=O)[C@H](Cc2ccc(O)cc2)NC(=O)[C@H](Cc2ccc(O)cc2)NC(=O)[C@H](CC[S+](C)[O-])NC(=O)[C@H](Cc2c[nH]cn2)NC(=O)[C@H](CO)NC1=O (some centres undefined) (H-AQTVQFYWCSH[Met(O)]YYTTVCWR-NH2; disulfide 9-18) | 6.49
13 | – | – | – | – | CCCC[C@@H]1NC(=O)[C@H](Cc2c[nH]cn2)NC(=O)[C@H](CO)NC(=O)[C@@H](NC(=O)[C@H](Cc2c[nH]c3ccccc23)NC(=O)[C@H](Cc2ccc(O)cc2)NC(=O)[C@H](Cc2ccccc2)NC(=O)[C@H](CCC(N)=O)NC(=O)[C@@H](NC(=O)[C@@H](NC(=O)[C@H](CCC(N)=O)NC(=O)[C@H](C)N)[C@@H](C)O)C(C)C)CSSC[C@@H](C(=O)N[C@@H](Cc2c[nH]c3ccccc23)C(=O)N[C@@H](CCCNC(=N)N)C(N)=O)NC(=O)[C@H](C(C)C)NC(=O)[C@H]([C@@H](C)O)NC(=O)[C@H]([C@@H](C)O)NC(=O)[C@H](Cc2ccc(O)cc2)NC(=O)[C@H](Cc2ccc(O)cc2)NC1=O (H-AQTVQFYWCSH[Nle]YYTTVCWR-NH2; disulfide 9-18) | 6.59
14 | inactive | inactive | – | inactive | Cc1c(-c2ccc(O)cc2)n(Cc2ccc(OCCN3CCCCCC3)cc2)c2ccc(O)cc12 [BAZEDOXIFENE] | 4.93
